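GI50 = concentration required for 50% inhibition of growth. Definition used: TGI = concentration required for complete inhibition of growth.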
What was measured:
Assay in all cases: NCI anticancer screen, dose series, 384-well format
SF-295 CNS = test system: SF-295 CNS
NCI-H322M lung = test system: NCI-H322M lung
NCI/ADR-RES ovarian = test system: NCI/ADR-RES ovarian
SN12C renal = test system: SN12C renal
NCI-H522 lung = test system: NCI-H522 lung
RPMI-8226 leukemia = test system: RPMI-8226 leukemia
SK-OV-3 ovarian = test system: SK-OV-3 ovarian
NCI-H226 lung = test system: NCI-H226 lung
RXF 393 renal = test system: RXF 393 renal
786-0 renal = test system: 786-0 renal
NCI-H23 lung = test system: NCI-H23 lung
SR leukemia = test system: SR leukemia
HCT-15 colon = test system: HCT-15 colon
LOX IMVI melanoma = test system: LOX IMVI melanoma
HT29 colon = test system: HT29 colon
NCI-H460 NSCLC = test system: NCI-H460 NSCLC
HOP-92 NSCLC = test system: HOP-92 NSCLC
HCC-2998 colon = test system: HCC-2998 colon
UACC-62 melanoma = test system: UACC-62 melanoma
OVCAR-3 ovarian = test system: OVCAR-3 ovarian
KM12 colon = test system: KM12 colon
HL-60(TB) leukemia = test system: HL-60(TB) leukemia
MDA-MB-468 breast = test system: MDA-MB-468 breast
SF-539 CNS = test system: SF-539 CNS
ACHN renal = test system: ACHN renal
SK-MEL-5 melanoma = test system: SK-MEL-5 melanoma
SF-268 CNS = test system: SF-268 CNS
MOLT-4 leukemia = test system: MOLT-4 leukemia
A498 renal = test system: A498 renal
CAKI-1 renal = test system: CAKI-1 renal
HCT-116 colon = test system: HCT-116 colon
MDA-MB-435 melanoma = test system: MDA-MB-435 melanoma
A549 NSCLC = test system: A549 NSCLC
IGROV1 ovarian = test system: IGROV1 ovarian
DU-145 prostate = test system: DU-145 prostate
SK-MEL-28 melanoma = test system: SK-MEL-28 melanoma
OVCAR-4 ovarian = test system: OVCAR-4 ovarian
HOP-62 NSCLC = test system: HOP-62 NSCLC
OVCAR-5 ovarian = test system: OVCAR-5 ovarian
PC-3 prostate = test system: PC-3 prostate
COLO 205 colon = test system: COLO 205 colon
TK-10 renal = test system: TK-10 renal
MCF7 breast = test system: MCF7 breast
SK-MEL-2 melanoma = test system: SK-MEL-2 melanoma
UACC-257 melanoma = test system: UACC-257 melanoma
CCRF-CEM leukemia = test system: CCRF-CEM leukemia
MDA-MB-231 breast = test system: MDA-MB-231 breast
U251 glioblastoma = test system: U251 glioblastoma
K-562 leukemia = test system: K-562 leukemia
M14 melanoma = test system: M14 melanoma
UO-31 renal = test system: UO-31 renal
MALME-3M melanoma = test system: MALME-3M melanoma
SW-620 colon = test system: SW-620 colon
SNB-19 CNS = test system: SNB-19 CNS
T-47D breast = test system: T-47D breast
OVCAR-8 ovarian = test system: OVCAR-8 ovarian
BT-549 breast = test system: BT-549 breast

In the case of C#CCN(c1ccc(C(=O)N[C@@H](CCC(=O)N[C@H](CCC(=O)O)C(=O)O)C(=O)O)cc1)C1CCc2cc3nc(CO)[nH]c(=O)c3cc21 (some centres undefined), the GI50 (SF-295 CNS) is reported as 2.76 µM, the TGI (SF-295 CNS) is reported as 7 µM and the GI50 (NCI-H322M lung) is reported as greater than 100 µM. The TGI (NCI-H322M lung) was greater than 100 µM, the GI50 (NCI/ADR-RES ovarian) was 3.18 µM and the TGI (NCI/ADR-RES ovarian) was 8.45 µM. It also gave a GI50 (SN12C renal) of 3.75 µM, a TGI (SN12C renal) of 46.9 µM and a GI50 (NCI-H522 lung) of 3.04 µM. The TGI (NCI-H522 lung) was 7.83 µM, the GI50 (RPMI-8226 leukemia) was 2 µM and the TGI (RPMI-8226 leukemia) was 4.03 µM. For the same compound, the GI50 (SK-OV-3 ovarian) was 43.2 µM, the TGI (SK-OV-3 ovarian) was greater than 100 µM and the GI50 (NCI-H226 lung) was 35.4 µM. For the same compound, the TGI (NCI-H226 lung) was greater than 100 µM, the GI50 (RXF 393 renal) was 8.09 µM and the TGI (RXF 393 renal) was 71.9 µM. For the same compound, the GI50 ([…]-0 renal) was 3.69 µM, the TGI (786-0 renal) was 31.1 µM and the GI50 (NCI-H23 lung) was 21.9 µM. It also gave a TGI (NCI-H23 lung) of 57.3 µM, a GI50 (SR leukemia) of 1.9 µM and a TGI (SR leukemia) of 3.38 µM. It also gave a GI50 (HCT-15 colon) of 5.2 µM, a TGI (HCT-15 colon) greater than 100 µM and a GI50 (LOX IMVI melanoma) of 5.03 µM. It also gave a TGI (LOX IMVI melanoma) greater than 100 µM, a GI50 (HT29 colon) of 5.23 µM and a TGI (HT29 colon) greater than 100 µM. For the same compound, the GI50 (NCI-H460 NSCLC) was 5.02 µM, the TGI (NCI-H460 NSCLC) was greater than 100 µM and the GI50 (HOP-92 NSCLC) was 13.3 µM. The TGI (HOP-92 NSCLC) was greater than 100 µM, the GI50 (HCC-2998 colon) was 0.386 µM and the TGI (HCC-2998 colon) was 3.96 µM. The GI50 (UACC-62 melanoma) was 64.6 µM, the TGI (UACC-62 melanoma) was greater than 100 µM and the GI50 (OVCAR-3 ovarian) was 9.01 µM. For the same compound, the TGI (OVCAR-3 ovarian) was greater than 100 µM, the GI50 (KM12 colon) was greater than 100 µM and the TGI (KM12 colon) was greater than 100 µM. It also gave a GI50 (HL-60(TB) leukemia) of 3.02 µM, a TGI (HL-60(TB) leukemia) of 7.56 µM and a GI50 (MDA-MB-468 breast) of 3.72 µM. For the same compound, the TGI (MDA-MB-468 breast) was 8.76 µM, the GI50 (SF-539 CNS) was 4.67 µM and the TGI (SF-539 CNS) was greater than 100 µM. For the same compound, the GI50 (ACHN renal) was 4.25 µM, the TGI (ACHN renal) was greater than 100 µM and the GI50 (SK-MEL-5 melanoma) was 11.6 µM. It also gave a TGI (SK-MEL-5 melanoma) greater than 100 µM, a GI50 (SF-268 CNS) of 4.09 µM and a TGI (SF-268 CNS) of 27.5 µM. The GI50 (MOLT-4 leukemia) was 2.67 µM, the TGI (MOLT-4 leukemia) was 5.52 µM and the GI50 (A498 renal) was 5.06 µM. The TGI (A498 renal) was greater than 100 µM, the GI50 (CAKI-1 renal) was 8.9 µM and the TGI (CAKI-1 renal) was greater than 100 µM. For the same compound, the GI50 (HCT-116 colon) was 4.57 µM, the TGI (HCT-116 colon) was greater than 100 µM and the GI50 (MDA-MB-435 melanoma) was greater than 100 µM. The TGI (MDA-MB-435 melanoma) was greater than 100 µM, the GI50 (A549 NSCLC) was 5.94 µM and the TGI (A549 NSCLC) was greater than 100 µM. For the same compound, the GI50 (IGROV1 ovarian) was 60.3 µM, the TGI (IGROV1 ovarian) was greater than 100 µM and the GI50 (DU-145 prostate) was 3.49 µM. For the same compound, the TGI (DU-145 prostate) was 20.3 µM, the GI50 (SK-MEL-28 melanoma) was 5.13 µM and the TGI (SK-MEL-28 melanoma) was greater than 100 µM. For the same compound, the GI50 (OVCAR-4 ovarian) was greater than 100 µM, the TGI (OVCAR-4 ovarian) was greater than 100 µM and the GI50 (HOP-62 NSCLC) was 10.5 µM. It also gave a TGI (HOP-62 NSCLC) of 45.8 µM, a GI50 (OVCAR-5 ovarian) greater than 100 µM and a TGI (OVCAR-5 ovarian) greater than 100 µM. For the same compound, the GI50 (PC-3 prostate) was 9.44 µM, the TGI (PC-3 prostate) was greater than 100 µM and the GI50 (COLO 205 colon) was 7.84 µM. The TGI (COLO 205 colon) was greater than 100 µM, the GI50 (TK-10 renal) was 6.69 µM and the TGI (TK-10 renal) was greater than 100 µM. For the same compound, the GI50 (MCF7 breast) was 0.8 µM, the TGI (MCF7 breast) was greater than 100 µM and the GI50 (SK-MEL-2 melanoma) was 99.9 µM. It also gave a TGI (SK-MEL-2 melanoma) greater than 100 µM, a GI50 (UACC-257 melanoma) greater than 100 µM and a TGI (UACC-257 melanoma) greater than 100 µM. For the same compound, the GI50 (CCRF-CEM leukemia) was 1.97 µM, the TGI (CCRF-CEM leukemia) was 4.68 µM and the GI50 (MDA-MB-231 breast) was greater than 100 µM. The TGI (MDA-MB-231 breast) was greater than 100 µM, the GI50 (U251 glioblastoma) was 68.9 µM and the TGI (U251 glioblastoma) was greater than 100 µM. It also gave a GI50 (K-562 leukemia) of 7.67 µM, a TGI (K-562 leukemia) greater than 100 µM and a GI50 (M14 melanoma) of 8.69 µM. It also gave a TGI (M14 melanoma) greater than 100 µM, a GI50 (UO-31 renal) of 4.46 µM and a TGI (UO-31 renal) of 62.4 µM. It also gave a GI50 (MALME-3M melanoma) greater than 100 µM, a TGI (MALME-3M melanoma) greater than 100 µM and a GI50 (SW-620 colon) of 9 µM. The TGI (SW-620 colon) was greater than 100 µM, the GI50 (SNB-19 CNS) was 5.96 µM and the TGI (SNB-19 CNS) was greater than 100 µM. The GI50 (T-47D breast) was greater than 100 µM, the TGI (T-47D breast) was greater than 100 µM and the GI50 (OVCAR-8 ovarian) was 4.54 µM. For the same compound, the TGI (OVCAR-8 ovarian) was greater than 100 µM, the GI50 (BT-549 breast) was 6.68 µM and the TGI (BT-549 breast) was greater than 100 µM.
